Data on 80 compounds can be found in the METLIN SMRT retention time set (Domingo-Almenara et al. 2019).

The nature of this series: gradient 5% acetonitrile 3 min, to 50% in 2 min, to 85% in 15 min, held 3 min, 100 µL/min. As to conditions: column: Zorbax Extend-C18 2.1 x 50 mm; eluents: water / acetonitrile, 0.1% formic acid. The method, boiled down:
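Retention time was recorded from adduct peaks, which were picked computationally and each inspected manually. Pure standards ran in mixtures of ~100 molecules on HPLC coupled to a quadrupole time-of-flight mass spectrometer, in positive and negative ionization mode, through a Zorbax Extend-C18 column (2.1 × 50 mm, 1.8 μm) at 100 μL/min. Eluents were water and acetonitrile, each with 0.1% formic acid.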
`CN(CC1CCOC1)C(=O)Cc1cccc(Cl)c1` (stereo not given): the RP-LC retention time worked out at 734 s.

For the compound `CN(C)c1ccc(/C=C2\C=Cc3ccccc32)cc1`, the RP-LC retention time amounted to 1240 s.

As to `Cc1ccc(-c2cc3c(=O)n(Cc4nc(-c5ccc(Br)cc5)no4)ncn3n2)c(C)c1`, the RP-LC retention time worked out at 1340 s.

Take `COC(=O)c1cn(Cc2cccc(C)c2)c2nc(C)ccc2c1=O`: the RP-LC retention time was found to be 854 s.

In turn, `COc1cccc(CNC(=O)Nc2ccc(-c3nc(-c4ccc(C)cc4C)co3)cc2)c1` displayed an RP-LC retention time of 1170 s.

`CCN1CCN(C(=O)C2CCN(S(=O)(=O)c3c(C)nn(-c4ccccc4)c3C)CC2)CC1` showed an RP-LC retention time of 621 s.

As to `COc1ccc(-c2noc(CN3N=NC4C(=O)N(c5ccc(C)c(Cl)c5)C(=O)C43)n2)c(OC)c1` (stereo not given), the RP-LC retention time was determined as 974 s.

With `COc1ccc(NC(=O)C2CCCN(c3nccnc3Sc3ccccc3)C2)cc1Cl` (stereo not given), the RP-LC retention time was found to be 1150 s.

Regarding `CNC(=O)N1CCC(C2CCN(C(=O)CCCC(=O)O)C2)CC1` (stereo not given), the RP-LC retention time stood at 572 s.

As for `CCNC(=O)c1ccc2c(c1)CCCN2S(=O)(=O)c1ccc(Cl)cc1`, the RP-LC retention time turned out to be 887 s.

On to `C[C@@H](O)[C@H]1C(=O)N2C(C(=O)OCOC(=O)C(C)(C)C)=C(SC3CN(C4=NCCS4)C3)[C@H](C)[C@H]12`, for which the RP-LC retention time came out at 732 s.

In turn, `CC(C)CN1CCn2cc(C(=O)NCc3ccc(F)cc3F)nc2C1` registered an RP-LC retention time of 608 s.

As for `CCOC(=O)c1nc(N2CCC(Cc3ccccc3)CC2)c2ccccc2n1`, the RP-LC retention time amounted to 979 s.

`Oc1ccc(Br)cc1CN1CCN(c2cc(-c3ccncc3)[nH]n2)CC1` returned an RP-LC retention time of 526 s.

In turn, `Cn1cnc2c(C(=O)NC3CCCCCC3)nn(-c3ccc(Cl)cc3)c2c1=O` showed an RP-LC retention time of 929 s.

Compound `CN(C)S(=O)(=O)c1ccc(C(=O)Nc2sc(-c3ccccc3)cc2C(N)=O)cc1` showed an RP-LC retention time of 925 s.

On to `COc1cccc(CC(=O)N2CCC3(CC2)NC(=O)c2ccc(F)cc2N3C)c1`, for which the RP-LC retention time turned out to be 756 s.

`CC(=O)Nc1ccc(C)cc1S(=O)(=O)N1CCC2(CC1)Nc1ccc(C)c(C)c1-n1cccc12` displayed an RP-LC retention time of 1070 s.

Compound `CCCn1c(=O)sc2cc(S(=O)(=O)N3CCC(C(=O)NCc4ccccc4)CC3)ccc21` yielded an RP-LC retention time of 932 s.

`CCOC(=O)c1cnc2nc(C)ccc2c1Nc1ccccc1` registered an RP-LC retention time of 673 s.

For `CCN1c2ccc(C)cc2C(=O)NC12CCN(C(=O)c1ccc(C)cc1)CC2`, the RP-LC retention time came to 849 s.

`CSc1ccccc1C(=O)N(CCN(C)C)c1nc2ccc([N+](=O)[O-])cc2s1` displayed an RP-LC retention time of 615 s.

In turn, `CCOc1cc(=O)n2c(c1C(=O)Nc1ccc(SC)cc1)CCCC2` had an RP-LC retention time of 754 s.

For the compound `CCCCc1ccc(NC(=O)CSc2cc(N3CCC(C(=O)NCC)CC3)ncn2)cc1`, the RP-LC retention time stood at 871 s.

In the case of `COCCCn1c(=O)c2ccccc2n(Cc2nc(-c3ccc(C)cc3)no2)c1=O`, the RP-LC retention time is 1060 s.

With `N#Cc1ccc(N2C=C(C(=O)N3CCOCC3)S(=O)(=O)c3ccc(Cl)cc32)cc1`, the RP-LC retention time was 764 s.

With `O=C(NC1CCCC1)c1nc(C(=O)N2CCN(c3ccccn3)CC2)cs1`, the RP-LC retention time is 595 s.

Turning to `Cc1ccc(NC(=O)Cn2cc(C(=O)N3CCCC3)c(=O)c3ccc(C)nc32)cc1`, the RP-LC retention time worked out at 713 s.

`Cc1ccc(C)c(NC(=O)Cn2cnc(-c3noc(-c4ccncc4)n3)c2)c1` returned an RP-LC retention time of 687 s.

Compound `CCNC(=O)N1CCc2c([nH]c3ccc(Cl)cc23)C12C(=O)N(C)c1ccccc12` (stereo not given) showed an RP-LC retention time of 822 s.

`COc1ccc(Br)c(CC2C(=O)Nc3ccccc32)c1` (stereo not given) returned an RP-LC retention time of 944 s.

In turn, `COC1CCC12CCN(C(=O)Nc1ccccc1)CC2` (stereo not given) showed an RP-LC retention time of 782 s.

As to `CN(c1nc(-c2ccc([N+](=O)[O-])cc2)nc2ccccc12)C1CCCCC1`, the RP-LC retention time is 993 s.

Consider `COC(=O)c1ccc(Cl)cc1NC(=O)N1CCN(CCn2cnc3cccnc32)CC1`, for which the RP-LC retention time worked out at 663 s.

The compound `CN1C(=O)c2ccccc2Oc2ccc(C(=O)NC3CCCC3)cc21` yielded an RP-LC retention time of 725 s.

On to `Nc1nc(N2CCOCC2)ncc1C(=O)NCc1ccccc1`, for which the RP-LC retention time came to 609 s.

`CCOC(=O)c1noc2nc(C)nc(Nc3ccccc3)c12` registered an RP-LC retention time of 1010 s.

Compound `COC(=O)c1cccc(C(=O)Nc2ccc(F)cc2Cl)n1` came in with an RP-LC retention time of 993 s.

As to `CCc1cccc(NC(=O)N2C[C@@H](F)C[C@H]2C(=O)N2CCOCC2)c1`, the RP-LC retention time worked out at 664 s.

As for `O=c1c2cc(-c3ccc(Br)cc3)nn2cnn1Cc1nc(-c2ccc(F)cc2)no1`, the RP-LC retention time was 1210 s.

With `Cc1ccc(-c2ncccc2CNS(=O)(=O)c2cccc(Cl)c2)cc1`, the RP-LC retention time stood at 766 s.

On to `Cn1nc2n(c1=O)CCN(S(=O)(=O)c1ccc(C#N)cc1)CC2`, for which the RP-LC retention time was 655 s.

As for `CCCNC(=O)N1CCCN(C2=NS(=O)(=O)C(c3ccc(F)cc3)=C2C)CC1`, the RP-LC retention time was 861 s.

Take `CN(C)S(=O)(=O)c1ccc2nc(NC(=O)c3nc4ccccc4s3)sc2c1`: the RP-LC retention time came to 948 s.

The compound `O=C(CCn1nnc2cc(-c3noc(-c4ccc(Br)o4)n3)ccc21)N1CCOCC1` came in with an RP-LC retention time of 822 s.

`CC(C)CCNC(=O)C1CCCN(c2ccnc(-c3ccc(F)cc3)n2)C1` (stereo not given) registered an RP-LC retention time of 690 s.

In turn, `COc1ccc(C2(C(=O)N3CCOc4ccc(N5CCOCC5)cc4C3)CC2)cc1` registered an RP-LC retention time of 794 s.

In the case of `Cc1cc(C)c2[nH]c3c(c(=O)c2c1)CN(CC(=O)NCc1ccccc1F)CC3`, the RP-LC retention time stood at 626 s.

In turn, `COc1ccc(NC(=O)C2CCc3sc(C(=O)N4CCCC4)cc3C2)cc1OC` (stereo not given) came in with an RP-LC retention time of 680 s.

In turn, `CCn1cc(C(=O)Nc2ccccc2)c(S(=O)(=O)N2CCSCC2)n1` had an RP-LC retention time of 834 s.

The compound `Cn1nnnc1SCC(=O)NCCn1nc(-c2cccs2)ccc1=O` registered an RP-LC retention time of 611 s.

`CCN(CC)c1ncc2c(n1)CCC(C(=O)Nc1ccc(OC)cc1OC)C2` (stereo not given) displayed an RP-LC retention time of 726 s.

Consider `COc1ccccc1CN1CC(F)(F)C[C@H]1COc1ccncc1`, for which the RP-LC retention time is 623 s.

As for `Cc1nn(-c2nc(-c3ccc(F)cc3)cs2)c(C)c1CC(=O)Nc1ccccc1F`, the RP-LC retention time came to 1140 s.

The compound `CC(CCNC(=O)c1nnc(-c2ccc(S(=O)(=O)N3CCCC3)cc2)o1)N1CCCCCC1` (stereo not given) displayed an RP-LC retention time of 644 s.

In turn, `Cc1ccc(-c2noc(Cn3c(=O)n(Cc4ccccc4Cl)c(=O)c4sccc43)n2)cc1C` returned an RP-LC retention time of 1290 s.

Regarding `COC(=O)CN1C(=O)Nc2ccc(C)cc2C1c1ccccc1` (stereo not given), the RP-LC retention time was found to be 840 s.

In turn, `COc1cc(-n2nnc(C(=O)NCc3ccco3)c2N)ccc1Cl` yielded an RP-LC retention time of 765 s.

`Cc1sc(-c2nnc(C(=O)N3CCCC3)o2)cc1S(=O)(=O)NCc1cccnc1` came in with an RP-LC retention time of 1310 s.

The compound `O=C1CN(C(=O)COc2ccccc2)C(c2ccccc2)c2cc(F)ccc2N1` (stereo not given) gave an RP-LC retention time of 826 s.

As for `CNc1nc(Nc2cc(F)ccc2F)nc2ccccc12`, the RP-LC retention time came to 675 s.

Take `COc1ccc(OC)c(S(=O)(=O)N(C)C)c1`: the RP-LC retention time is 702 s.

Turning to `Cc1cc(C)n(-c2nc(CC(=O)Nc3ccccc3F)cs2)n1`, the RP-LC retention time was determined as 961 s.

The compound `Cc1ccc2cc(CCC(=O)NCCc3cccnc3)c(=O)[nH]c2c1` returned an RP-LC retention time of 586 s.

Compound `Cc1ccc(-c2nc(Nc3ccccc3F)sc2C)cc1` showed an RP-LC retention time of 1340 s.

Take `CCNc1cc(N2CCCC(CCC(=O)N3CCN(C(=O)c4ccco4)CC3)C2)ncn1` (stereo not given): the RP-LC retention time was determined as 610 s.

`Cc1ccc(C)c(N2CCN(C(=O)c3cn4ccccc4n3)CC2)c1` had an RP-LC retention time of 771 s.

Take `O=C(Nc1ccc2c(c1)OCCO2)c1c(O)c2cccnc2n(-c2ccccc2)c1=O`: the RP-LC retention time is 1150 s.

In turn, `CCCOc1ccc(CN2CCN(C(=O)c3ccoc3)CC2)cn1` showed an RP-LC retention time of 679 s.

On to `COc1cc2c(cc1OC)C(/C=C/c1ccco1)=NCC2`, for which the RP-LC retention time came out at 693 s.

The compound `CCCCn1cc(S(=O)(=O)NCc2ccc(F)cc2Cl)c2cccnc21` registered an RP-LC retention time of 1030 s.

With `Cc1ccc(Cn2c(=O)n(CCNC(=O)c3ccsc3)c3ncccc32)cc1`, the RP-LC retention time was 794 s.

`Cc1cc(C)c2c(N3CCOCC3)nc(C(=O)N3CCN(c4ccccc4)CC3)nc2n1` yielded an RP-LC retention time of 653 s.

Compound `CCN(C(=O)c1cccs1)c1nc(-c2ccccc2)cs1` had an RP-LC retention time of 1220 s.

Turning to `COc1cccc(CNC(=O)Cc2csc3nc(-c4cccc(Br)c4)cn23)c1`, the RP-LC retention time worked out at 925 s.

Compound `CCCS(=O)(=O)N1CCC(c2nnc(C3CC3)s2)CC1` gave an RP-LC retention time of 684 s.

`CCn1c(=O)n(CC)c2cc(NC3=C(C(N)=O)S(=O)(=O)c4ccccc43)ccc21` displayed an RP-LC retention time of 702 s.

Take `O=C(Nc1cnc(N2CCOCC2)nc1)c1cccc(Cl)c1`: the RP-LC retention time amounted to 793 s.

With `O=C(COC(=O)c1cccnc1)Nc1ccc2c(c1)OCO2`, the RP-LC retention time came out at 640 s.

With `COC(=O)c1cnc2nc(C)ccc2c1Nc1ccccc1F`, the RP-LC retention time is 649 s.
